In BindingDB's records for doi:10.1073/pnas.92.8.3298 (Agouron Pharmaceuticals, 1995):

What follows are compounds tested against T1, Dimer of Gag-Pol polyprotein [489-587] (Human immunodeficiency virus 1, UniProt P12497) (assay: Protease Inhibition Assay). Settings: pH 5.6; 37 °C.
T1 construct: 489-587
Protocol: Protease activity was measured by continuous chromogenic assay. The chromogenic peptide His-Lys-Ala-Arg-Val-Leu- (p-NO2-Phe)-Glu-Ala-Nleu-Ser (Bachem) was used as a substrate. Reactions were followed by the decrease of absorbance at 300 nm measured by spectrophotometer. Experimental results were analyzed by the nonlinear regression analysis, using a mathematical model for tight binding inhibitors.

SMILES | Ki [µM]
CC(C)(c1ccccc1)N(CCO)C(=O)c1ccccc1CCC(O)Cc1ccccc1C(=O)N(CCO)C(C)(C)c1ccccc1 (stereo not drawn) [2-(3-hydroxy-4-{2-[(2-hydroxyethyl)(2-phenylpropan-2-yl)carbamoyl]phenyl}butyl)-N-(2-hydroxyethyl)-N-(2-phenylpropan-2-yl)benzamide] | 0.022
CC(C)(C)NC(=O)c1ccccc1CCC(O)Cc1ccccc1C(=O)NC(C)(C)C (stereo not drawn) [2-Butanol deriv. 8] | 24
CCC1(N(CCO)C(=O)c2ccccc2CC[C@@H](O)Cc2ccc(C)cc2C(=O)N(CCO)C(C)(C)c2ccccc2)CCCC1 [2-[(2R)-4-{2-[(1-ethylcyclopentyl)(2-hydroxyethyl)carbamoyl]phenyl}-2-hydroxybutyl]-N-(2-hydroxyethyl)-5-methyl-N-(2-phenylpropan-2-yl)benzamide] | 0.0048
CCC1(N(CCO)C(=O)c2ccccc2CC[C@H](O)Cc2ccc(C)cc2C(=O)N(CCO)C(C)(C)c2ccccc2)CCCC1 [2-[(2S)-4-{2-[(1-ethylcyclopentyl)(2-hydroxyethyl)carbamoyl]phenyl}-2-hydroxybutyl]-N-(2-hydroxyethyl)-5-methyl-N-(2-phenylpropan-2-yl)benzamide] | 1.4
CC(C)(C)NC(=O)c1ccccc1C[C@@H](O)[C@H](Cc1ccccc1)NC(=O)[C@H](CC(N)=O)NC(=O)c1ccc2ccccc2n1 [(2S)-N-[(2S,3R)-4-[2-(tert-butylcarbamoyl)phenyl]-3-hydroxy-1-phenylbutan-2-yl]-2-(quinolin-2-ylformamido)butanediamide] | 0.0016
CC(C)(C)N(CCO)C(=O)c1ccccc1CCC(O)Cc1ccccc1C(=O)N(CCO)C(C)(C)c1ccccc1 (stereo not drawn) [N-tert-butyl-2-(3-hydroxy-4-{2-[(2-hydroxyethyl)(2-phenylpropan-2-yl)carbamoyl]phenyl}butyl)-N-(2-hydroxyethyl)benzamide] | 0.09
CC(C)(C)NC(=O)c1ccccc1CC(O)CSc1ccccc1NC(=O)C(C)(C)C (stereo not drawn) [N-tert-butyl-2-(3-{[2-(2,2-dimethylpropanamido)phenyl]sulfanyl}-2-hydroxypropyl)benzamide] | > 100
CC(C)(C)NC(=O)c1ccccc1CC(O)CSc1ccccc1C(=O)NC(C)(C)C (stereo not drawn) [N-tert-butyl-2-(3-{[2-(tert-butylcarbamoyl)phenyl]sulfanyl}-2-hydroxypropyl)benzamide] | 83
CC(C)(C)NC(=O)c1c(CC[C@H](O)Cc2ccc3ccccc3c2C(=O)NC(C)(C)C)ccc2ccccc12 [N-tert-butyl-2-[(3S)-4-[1-(tert-butylcarbamoyl)naphthalen-2-yl]-3-hydroxybutyl]naphthalene-1-carboxamide] | 0.481
CC(C)(C)NC(=O)c1ccccc1CCC(O)Cc1ccc2ccccc2c1C(=O)NC(C)(C)C (stereo not drawn) [N-tert-butyl-2-{4-[2-(tert-butylcarbamoyl)phenyl]-2-hydroxybutyl}naphthalene-1-carboxamide] | 2.2
CC(C)(C)NC(=O)c1ccccc1SCC(O)Cc1ccccc1C(=O)N(CCO)C(C)(C)C (stereo not drawn) [Tertiary Amide deriv. 6] | 34
CCC1(N(CCO)C(=O)c2ccccc2CCC(O)Cc2ccc(Cl)cc2C(=O)N(CCO)C(C)(C)c2ccccc2)CCCC1 (stereo not drawn) [Tertiary Amide deriv. 43cb] | 0.002
CC(C)(C)NC(=O)c1c(CC[C@@H](O)Cc2ccc3ccccc3c2C(=O)NC(C)(C)C)ccc2ccccc12 [diarylbutanol deriv. 7R] | 25
